{
  "source": "paper PMC5925751",
  "about": "(American journal of hematology, 2017)",
  "key": {"[1]": {"assay": "Pharmacokinetics, plasma AMG 900 by LC-MS/MS after multiple oral administrations", "assay_type": "in vivo", "conditions": "human"}, "[2]": {"test_system": "phosphorylated histone H3 (pHH3) in peripheral blood leukemic blasts", "assay": "Pharmacodynamics: flow cytometric pHH3 assay in whole blood", "assay_type": "in vivo, human", "conditions": "as early as 1 hour after treatment; regardless of dosing schedule; transient"}, "patients with AML [3]": {"test_system": "patients with AML", "assay": "Efficacy: objective response by Cheson response criteria", "assay_type": "in vivo, human"}, "patients with AML [4]": {"test_system": "patients with AML", "assay": "Safety and tolerability", "assay_type": "in vivo"}, "AML blasts": {"test_system": "AML blasts", "conditions": "cited from earlier work"}, "[5]": {"conditions": "Total, all doses and schedules (n = 35)"}},
  "note": "Values joined by “and” are separate entries in the source; they are usually repeats but may differ in a detail not shown here. Equal values may be shown once.",
  "data": [
    {"molecule": "Cc1csc(-c2nnc(Nc3ccc(Oc4ncccc4-c4ccnc(N)n4)cc3)c3ccccc23)c1", "note": "[AMG 900, N-(4-(3-(2-aminopyrimidin-4-yl)pyridin-2-yloxy)phenyl)-4-(4-methylthiophen-2-yl)p hthalazin-1-amine]", "values": [
      {"measurement": "AUC(0-t)", "setting": "[1]; 15 mg", "value": 1380, "unit": "ng·h/mL"},
      {"measurement": "Cmax", "setting": "[1]; 15 mg", "value": 501, "unit": "ng/mL"},
      {"measurement": "AUC(0-t)", "setting": "[1]; 25 mg", "value": 2740, "unit": "ng·h/mL"},
      {"measurement": "Cmax", "setting": "[1]; 25 mg", "value": 951, "unit": "ng/mL"},
      {"measurement": "AUC(0-t)", "setting": "[1]; 40 mg", "value": 4360, "unit": "ng·h/mL"},
      {"measurement": "Cmax", "setting": "[1]; 40 mg", "value": 1600, "unit": "ng/mL"},
      {"measurement": "AUC(0-t)", "setting": "[1]; 60 mg", "value": 5620, "unit": "ng·h/mL"},
      {"measurement": "Cmax", "setting": "[1]; 60 mg", "value": 1890, "unit": "ng/mL"},
      {"measurement": "AUC(0-t)", "setting": "[1]; 80 mg", "value": 3210, "unit": "ng·h/mL"},
      {"measurement": "Cmax", "setting": "[1]; 80 mg", "value": 1430, "unit": "ng/mL"},
      {"measurement": "AUC(0-t)", "setting": "[1]; 100 mg", "value": 10200, "unit": "ng·h/mL"},
      {"measurement": "Cmax", "setting": "[1]; 100 mg", "value": 3670, "unit": "ng/mL"},
      {"measurement": "inhibition of pHH3 expression in whole blood", "setting": "[2]", "value": "clear inhibition of pHH3 expression"},
      {"measurement": "objective response rate", "setting": "patients with AML [3]; all patients, any dose, either schedule, 80% confidence interval: 3%, 18%", "value": 9, "unit": "%"},
      {"measurement": "duration of response", "setting": "patients with AML [3]; individual values of the three responders, 1.5 months is a censored observation", "value": "3 months and 1.5 months and < 1 months"},
      {"measurement": "Treatment-related adverse events by grade: Fatal", "setting": "patients with AML [4]; 15 mg, 4 days on/10 days off (n = 4)", "value": "0 (0) n (%)"},
      {"measurement": "Treatment-related adverse events by grade: Fatal", "setting": "patients with AML [4]; 25 mg, 4 days on/10 days off (n = 3)", "value": "0 (0) n (%)"},
      {"measurement": "Treatment-related adverse events by grade: Fatal", "setting": "patients with AML [4]; 30 mg, 7 days on/7 days off (n = 3)", "value": "0 (0) n (%)"},
      {"measurement": "Treatment-related adverse events by grade: Fatal", "setting": "patients with AML [4]; 40 mg, 4 days on/10 days off (n = 7)", "value": "1 (14) n (%)"},
      {"measurement": "Treatment-related adverse events by grade: Fatal", "setting": "patients with AML [4]; 40 mg, 7 days on/7 days off (n = 4)", "value": "0 (0) n (%)"},
      {"measurement": "Treatment-related adverse events by grade: Fatal", "setting": "patients with AML [4]; 50 mg, 7 days on/7 days off (n = 6)", "value": "1 (17) n (%)"},
      {"measurement": "Treatment-related adverse events by grade: Fatal", "setting": "patients with AML [4]; 60 mg, 4 days on/10 days off (n = 4)", "value": "0 (0) n (%)"},
      {"measurement": "Treatment-related adverse events by grade: Fatal", "setting": "patients with AML [4]; 80 mg, 4 days on/10 days off (n = 3)", "value": "0 (0) n (%)"},
      {"measurement": "Treatment-related adverse events by grade: Fatal", "setting": "patients with AML [4]; 100 mg, 4 days on/10 days off (n = 1)", "value": "0 (0) n (%)"},
      {"measurement": "Grade ≥ 3 treatment-related adverse events: Device-related infection", "setting": "patients with AML [4]; [5]", "value": "2 (6) n (%)"},
      {"measurement": "Grade ≥ 3 treatment-related adverse events: Septic shock", "setting": "patients with AML [4]; [5]", "value": "2 (6) n (%)"},
      {"measurement": "Treatment-related adverse events by grade: Fatal", "setting": "patients with AML [4]; [5]", "value": "2 (6) n (%)"},
      {"measurement": "Treatment-related adverse events, all grades: Mucosal inflammation", "setting": "patients with AML [4]; [5]", "value": "4 (11) n (%)"},
      {"measurement": "Treatment-related adverse events, all grades: Nausea", "setting": "patients with AML [4]; [5]", "value": "11 (31) n (%)"},
      {"measurement": "Treatment-related adverse events, all grades: Rash", "setting": "patients with AML [4]; [5]", "value": "4 (11) n (%)"},
      {"measurement": "Treatment-related adverse events, all grades: Vomiting", "setting": "patients with AML [4]; [5]", "value": "6 (17) n (%)"},
      {"measurement": "maximum tolerated dose (MTD)", "setting": "patients with AML [4]; either dosing schedule", "value": "not formally reached"},
      {"measurement": "Any treatment-related adverse events", "setting": "patients with AML [4]; human, in vivo", "value": "30 (86) n (%)"},
      {"measurement": "Grade ≥ 3 treatment-related adverse events: Diarrhea", "setting": "patients with AML [4]; human, in vivo", "value": "2 (6) n (%)"},
      {"measurement": "Grade ≥ 3 treatment-related adverse events: Febrile neutropenia", "setting": "patients with AML [4]; human, in vivo", "value": "10 (29) n (%)"},
      {"measurement": "Grade ≥ 3 treatment-related adverse events: Pancytopenia", "setting": "patients with AML [4]; human, in vivo", "value": "2 (6) n (%)"},
      {"measurement": "Grade ≥ 3 treatment-related adverse events: Thrombocytopenia", "setting": "patients with AML [4]; human, in vivo", "value": "2 (6) n (%)"},
      {"measurement": "Treatment-related adverse events by grade: Grade ≥ 3", "setting": "patients with AML [4]; human, in vivo", "value": "16 (46) n (%)"},
      {"measurement": "Treatment-related adverse events by grade: Grade ≥ 4", "setting": "patients with AML [4]; human, in vivo", "value": "5 (14) n (%)"},
      {"measurement": "Treatment-related adverse events, all grades: Alopecia", "setting": "patients with AML [4]; human, in vivo", "value": "5 (14) n (%)"},
      {"measurement": "Treatment-related adverse events, all grades: Diarrhea", "setting": "patients with AML [4]; human, in vivo", "value": "10 (29) n (%)"},
      {"measurement": "Treatment-related adverse events, all grades: Dyspnea", "setting": "patients with AML [4]; human, in vivo", "value": "4 (11) n (%)"},
      {"measurement": "Treatment-related adverse events, all grades: Epistaxis", "setting": "patients with AML [4]; human, in vivo", "value": "4 (11) n (%)"},
      {"measurement": "Treatment-related adverse events, all grades: Fatigue", "setting": "patients with AML [4]; human, in vivo", "value": "8 (23) n (%)"},
      {"measurement": "Treatment-related adverse events, all grades: Febrile neutropenia", "setting": "patients with AML [4]; human, in vivo", "value": "10 (29) n (%)"},
      {"measurement": "median (range) duration of febrile neutropenia", "setting": "patients with AML [4]; human, in vivo", "value": "8 (1, 45) days"},
      {"measurement": "serious treatment-related AE: device-related infection", "setting": "patients with AML [4]; human, in vivo", "value": 6, "unit": "%"},
      {"measurement": "serious treatment-related AE: febrile neutropenia", "setting": "patients with AML [4]; human, in vivo", "value": 26, "unit": "%"},
      {"measurement": "serious treatment-related AE: septic shock", "setting": "patients with AML [4]; human, in vivo", "value": 6, "unit": "%"},
      {"measurement": "treatment-related AE, any grade: alopecia", "setting": "patients with AML [4]; human, in vivo", "value": 14, "unit": "%"},
      {"measurement": "treatment-related AE, any grade: nausea", "setting": "patients with AML [4]; human, in vivo", "value": 31, "unit": "%"},
      {"measurement": "treatment-related AE, any grade: vomiting", "setting": "patients with AML [4]; human, in vivo", "value": 17, "unit": "%"},
      {"measurement": "tolerability of highest dose evaluated", "setting": "patients with AML [4]; in vivo", "value": "tolerated"},
      {"measurement": "patients with serious treatment-related AEs", "setting": "patients with AML [4]; overall, 11 patients", "value": 31, "unit": "%"},
      {"measurement": "patients who discontinued AMG 900 treatment due to AEs", "setting": "patients with AML [4]; overall, five patients", "value": 14, "unit": "%"},
      {"measurement": "patients who died during the study", "setting": "patients with AML [4]; overall, nine patients, two deaths considered treatment-related", "value": 26, "unit": "%"}
    ]},
    {"molecule": "COc1cc(Nc2ncc3c(n2)-c2ccc(Cl)cc2C(c2c(F)cccc2OC)=NC3)ccc1C(=O)O", "note": "[MLN8237]", "values": [
      {"measurement": "apoptosis of AML blasts", "setting": "AML blasts", "value": "induced apoptosis"},
      {"measurement": "proliferation of AML blasts", "setting": "AML blasts", "value": "inhibited proliferation"}
    ]}
  ]
}
